# Reference: ChEMBL document CHEMBL3751791, “Alkenes with antioxidative activities from Murraya koenigii (L.) Spreng” (Bioorg Med Chem Lett, 2016)
# Assay: Antioxidative activity of the compound assessed as DPPH radical scavenging activity
# Type: physicochemical
row,SMILES,IC50 [µM]
1,C=C[C@](C)(O)C[C@@H](O)/C=C(\C)[C@@H](O)CC=C(C)C,23.5
2,C=C[C@](C)(CC/C=C(\CO)CC/C=C(\C)C[C@@H](O)/C=C(\C)C(=O)O)O[C@H]1O[C@@H](CO)[C@H](O)[C@@H](O)[C@@H]1O,40.2
3,CC/C=C/C[C@H](O)/C=C/[C@H](O)[C@H](O)[C@H](O)CCCCC[C@H](C)O,25.4
4,O=C(/C=C/c1ccc(O)c(O)c1)O[C@@H]1C[C@](O)(C(=O)O)C[C@@H](O)[C@H]1O [CHLOROGENIC ACID],56.4
5,C=C[C@](C)(O)CC/C=C(C)/C=C/[C@@H](O[C@H]1O[C@@H](CO)[C@H](O)[C@@H](O)[C@@H]1O)C(C)(C)O,38.4
